Data published in US9051562B2, “Polypeptides isolated from brevibacterium aurantiacum and their use for the treatment of cancer” (Institut National de la Santé et de la Recherche Médicale …, priority 2011, dated 2015).

Legend:
[1] = target: Brevibacterium aurantiacum (ATCC 9175; formerly B. linens) methionine gamma-lyase MGL-BL929, recombinant, SEQ ID NO: 1 (Brevibacterium aurantiacum, UniProt A0A2H1K3G9); conditions: for Vmax: 100 mM K*PO4, 0.01 mM PLP; for Vmax / activity of the enzyme towards the substrate (in words): pH 7.5, 25° C., 10 min; for activity of the enzyme towards the substrate (in words): 25 mM of substrate
HT29MTX cells = assay: Growth inhibition of HT29MTX cells (Trypan blue dye exclusion), resistance to methotrexate; assay type: cell-based, human; conditions: 1 μM methotrexate
Description: Seven human tumor cell lines were used to determine the cellular effects of MGL-BL929. These comprise five adherent solid tumor-derived cell lines (including the colorectal carcinoma cell line HT29, two stable variants of HT29 selected for their high levels of resistance to methotrexate (HT29MTX), and to fluorouracil (HT29FUra), the ovarian carcinoma cell line SKOV3, and the hepatoblastoma-derived cell line (HepG2), and 2 non-adherent tumor cell lines (including the T-cell lymphoma cell line Jurkat, and the acute lymphocytic leukemia cell line Reh). Similarly, human non-tumor skin fibroblasts (CDGII) were exposed to MGL-BL929 at various concentrations in order to explore selectivity of MGL-BL929 towards cancer cells.
The cells lines were thawed from mycoplasma-free frozen stocks and were controlled for contamination. Cells were maintained in cell culture medium (RPMI 1640 or DMEM according to the growth requirements of each cell line), supplemented with 10% FBS and antibiotics (streptomycin, 50 μg/mL, and penicillin, 50 U/mL) at 37° in an atmosphere containing 5% CO2. Cells were exposed in 12 well-cell plates to the purified recombinant MGL-BL929 at a concentration range from 0.05 U/mL to 5 U/mL, and were harvested 24 hr., 48 hr., 72 hr., and 96 hr. from start of the exposure. Cell viability was measured with the Trypan blue dye exclusion test in Malassez chambers.

SMILES | Vmax [1] | activity of the enzyme towards the substrate (in words) [1] | Affinity relative to L-methionine (fold greater) ([1]; L-homocysteine compared with L-methionine) | resistance of the cells to methotrexate (in words) (HT29MTX cells)
CSCC[C@H](N)C(=O)O [L-Methionine, L-methionine] | 5.77 ± 1.4 μmol · min^−1 · m^−1 |  |  | 
CSCC[C@@H](N)C(=O)O [D-methionine] | 0 μmol · min^−1 · m^−1 | no activity |  | 
N[C@@H](CCS)C(=O)O [L-Homocysteine, L-homocysteine] | 27.7 ± 5.7 μmol · min^−1 · m^−1 |  | 7.3 fold | 
CN(Cc1cnc2nc(N)nc(N)c2n1)c1ccc(C(=O)N[C@@H](CCC(=O)O)C(=O)O)cc1 [methotrexate] |  |  |  | fully resistant
N[C@@H](CS)C(=O)O [L-Cysteine, L-cysteine] | 0 μmol · min^−1 · m^−1 | no activity |  | 
N[C@@H](CCSC[C@H](N)C(=O)O)C(=O)O [L-Cystathionine, L-cystathionine] | 0 μmol · min^−1 · m^−1 | no activity |  | 
Nc1ncnc2c1ncn2[C@@H]1O[C@H](CSCC[C@H](N)C(=O)O)[C@@H](O)[C@H]1O [S-Adenosyl L-homocysteine] | 0 μmol · min^−1 · m^−1 | no activity |  | 
